In patent US7309698B2, “Compositions for delivering bisphosphonates” (Emisphere Technologies, Inc., priority 2001, dated 2007):
“And” between values parts separate entries of the source, which are not always exact repeats. Equal values may be shown once.

Columns and labels:
[1] = Solubility of delivery agent compound; type: physicochemical; conditions: 350 µl 2N NaOH + 650 µl water, aqueous buffer, thermodynamic from solid; 200 mg+350 μl 2N NaOH+650 μl H2O, pH=7.67
Protocol: The reaction mixture was warmed to 25° C. and stirred for 64 hours. The volatiles were removed in vacuo. The residue was stirred in 2N aqueous sodium hydroxide for one hour and acidified with 2M aqueous sulfuric acid. The solid was recrystallized twice from ethanol/water to give a tan solid. Isolation by filtration afforded 53.05 g of (52% yield) of 2-(4-(N-salicyloyl) aminophenyl) propionic acid. Solubility: 200 mg/mL (200 mg+350 μl 2N NaOH+650 μl H2O, pH=7.67). Anal. Calculated: C=67.36, H=5.3, N=4.91. Found: C=67.05, H=5.25, N=4.72.
A solution of 53.05 g (0.186 mol) of 2-(4-(N-salicyloyl)aminophenyl) propionic acid and 300 mL of ethanol was treated with 7.59 g (0.190 mol) of NaOH dissolved in 22 mL of water. The reaction mixture was stirred for 30 minutes at 25° C. and for 30 minutes at 0° C. The resulting pale yellow solid was isolated by filtration to give 52.61 g of sodium 2-(4-(N-salicyloyl) aminophenyl) propionate. Solubility: 200 mg/mL clear solution, pH=6.85. Anal. Calculated: C=60.45, H=5.45, N=3.92, Na=6.43. Found: C=60.84, H=5.87, N=3.85, Na=6.43. Melting point 236-238° C.

melting point | solubility [1] | SMILES
236 to 238 °C | – | CC(C(=O)[O-])c1ccc(NC(=O)c2ccccc2O)cc1.[Na+] (stereo not drawn) [Compound 4 Sodium Salt, Sodium 2-(4-(N-salicyloyl)aminophenyl)propionate]
– | 200 mg/mL | CC(C(=O)O)c1ccc(NC(=O)c2ccccc2O)cc1 (stereo not drawn) [Compound 4, 2-(4-(N-salicyloyl)aminophenyl)propionic acid]
65 to 68 °C and 60 to 64 °C | – | O=C(O)CCCCCCCOc1ccccc1O [Compound 7, 8-(2-Hydroxyphenoxy)octanoic acid]
